This is an account of results in ChEMBL document CHEMBL2176953, “Synthesis and evaluation of α-thymidine analogues as novel antimalarials” (J Med Chem, 2012).

Molecules are shown by their SMILES. Where only a bound is given, the exact number is not on record here.

A word on the EC50: it is the midpoint of the concentration-response curve. In general, fraction unbound refers to the share of the substance not bound to proteins or other matrix. A high value points to much free substance. By Ki is commonly meant the equilibrium dissociation constant of an inhibitor or competing ligand from its target. Usually CC50 stands for the concentration giving 50% cytotoxicity.

One data set has as its system Plasmodium falciparum. Put plainly: Antimalarial activity against erythrocytic stages of Plasmodium falciparum 3D7 infected in human O positive RBC after 48 hrs by SYBR-green assay. Format: functional, organism-based. Conditions: 3D7, 48 h.
Data set [1] is described as follows: Plasma protein binding in CD1 mouse after 5 hrs.
A further data set concerns the target T1, Thymidylate kinase (Plasmodium falciparum (isolate 3D7), UniProt Q8I4S1).
T1 sequence (Q8I4S1 whole entry): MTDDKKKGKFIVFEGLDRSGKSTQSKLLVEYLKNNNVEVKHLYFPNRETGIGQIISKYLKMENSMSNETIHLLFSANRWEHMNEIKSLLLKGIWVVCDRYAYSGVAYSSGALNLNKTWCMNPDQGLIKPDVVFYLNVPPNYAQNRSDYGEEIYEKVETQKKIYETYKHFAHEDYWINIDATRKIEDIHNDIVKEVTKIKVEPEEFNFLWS
Put plainly: Inhibition of recombinant Plasmodium falciparum TMPK using TMP as substrate by pyruvate kinase and lactate dehydrogenase enzyme coupled assay.

A further data set concerns MRC5. Put plainly: Cytotoxicity against human MRC5 cells. Format: cell-based.

`Cc1cn([C@@H]2C[C@H](O)[C@@H](CNC(=O)Nc3ccc(N4CCCCC4)cc3)O2)c(=O)[nH]c1=O`: in the data set with Plasmodium falciparum, the EC50 is 0.34 µM. In addition, the fraction unbound at 5 h in data set [1] is 0.477.
For `Cc1cn([C@@H]2C[C@H](O)[C@@H](CNC(=O)Nc3ccc(Br)cc3)O2)c(=O)[nH]c1=O`, the Ki at Thymidylate kinase was over 1000 µM. The concentration for a half-maximal effect (EC50) in the data set on Plasmodium falciparum stood at 1.5 µM. The CC50 in the data set with MRC5 was over 50 µM.
In the data set with Plasmodium falciparum, `Cc1cn([C@@H]2C[C@H](O)[C@@H](CNC(=O)Nc3ccc(OCc4ccccc4)cc3)O2)c(=O)[nH]c1=O` came in with an EC50 of 0.24 µM. In addition, the fraction unbound at 5 h in data set [1] is 0.188.
In the case of `Cc1cn([C@@H]2C[C@H](O)[C@@H](CNC(=O)Nc3ccc(Cl)c(C(F)(F)F)c3)O2)c(=O)[nH]c1=O`, the Ki at Thymidylate kinase was determined as 88 µM. Also, the EC50 with Plasmodium falciparum was 9 µM. Moreover, the CC50 in the data set on MRC5 was over 50 µM.
For `Cc1cn([C@@H]2C[C@H](O)[C@@H](CNC(=O)Nc3ccc(C(C)(C)C)cc3)O2)c(=O)[nH]c1=O`, in that order: 167 µM, 2.9 µM and over 50 µM.
Compound `Cc1cn([C@H]2C[C@H](O)[C@@H](CNC(=O)Nc3ccc(-c4ccccc4)cc3)O2)c(=O)[nH]c1=O` gave an EC50 in the data set with Plasmodium falciparum of 3.3 µM. Further, in the data set on MRC5, the CC50 was over 50 µM.
With `Cc1cn([C@@H]2C[C@H](O)[C@@H](CNC(=O)Nc3cccc(Cl)c3)O2)c(=O)[nH]c1=O`, the Ki at Thymidylate kinase is 106 µM. In the data set on Plasmodium falciparum, this compound gave an EC50 of 4.8 µM. The compound further gave a CC50 in the data set on MRC5 of over 50 µM.
Compound `Cc1cn([C@@H]2C[C@H](O)[C@@H](CNC(=O)Nc3ccc(-c4ccc(C(F)(F)F)nc4)cc3)O2)c(=O)[nH]c1=O` yielded an EC50 in the data set on Plasmodium falciparum of 1.4 µM. In addition, the CC50 in the data set with MRC5 was over 50 µM.
For `COc1ccc(NC(=O)NC[C@H]2O[C@H](n3cc(C)c(=O)[nH]c3=O)C[C@@H]2O)cc1`, in that order: 2.5 µM and over 50 µM.
Compound `Cc1cn([C@H]2C[C@H](O)[C@@H](CNC(=O)Nc3ccc(OCc4ccccc4Cl)cc3)O2)c(=O)[nH]c1=O` came in with an EC50 with Plasmodium falciparum of 0.41 µM. The same compound gave a 50% cytotoxic concentration (CC50) in the data set on MRC5 of over 50 µM.
`Cc1cn([C@@H]2C[C@H](O)[C@@H](CNC(=S)Nc3ccc(Cl)c(C(F)(F)F)c3)O2)c(=O)[nH]c1=O`: the inhibition constant (Ki) at Thymidylate kinase amounted to 31 µM. The same compound yielded an EC50 in the data set with Plasmodium falciparum of 2.3 µM. The compound also displayed a CC50 in the data set with MRC5 of over 50 µM.
`Cc1cn([C@@H]2C[C@H](O)[C@@H](CNC(=O)Nc3ccc(OCc4ccccc4Cl)cc3)O2)c(=O)[nH]c1=O` gave a concentration giving a half-maximal response (EC50) with Plasmodium falciparum of 0.028 µM. This compound showed a fraction unbound at 5 h in data set [1] of 0.059. In addition, the CC50 with MRC5 amounted to 29 µM.
Consider `Cc1cn([C@@H]2C[C@H](O)[C@@H](CNC(=O)Nc3ccc(-c4ccccc4)cc3)O2)c(=O)[nH]c1=O`, for which the EC50 in the data set on Plasmodium falciparum was 0.29 µM. The same compound had a fraction unbound at 5 h in data set [1] of 0.08.
Consider `Cc1cn([C@@H]2C[C@H](O)[C@@H](CNC(=S)Nc3ccc(Cl)cc3)O2)c(=O)[nH]c1=O`, for which, on Thymidylate kinase, the Ki came to 90 µM. Further, the response with Plasmodium falciparum was half-maximal at 13 µM (EC50). In the data set with MRC5, this compound yielded a CC50 of over 50 µM.
As for `Cc1cn([C@@H]2C[C@H](O)[C@@H](CNC(=O)Nc3ccc(Oc4ccccc4)cc3)O2)c(=O)[nH]c1=O`, the EC50 with Plasmodium falciparum was found to be 0.24 µM. Also, in data set [1], the fraction unbound at 5 h is 0.095. The same compound gave a CC50 in the data set on MRC5 of 44 µM.
With `Cc1cn([C@@H]2C[C@H](O)[C@@H](CNC(=O)Nc3ccccc3COc3ccccc3)O2)c(=O)[nH]c1=O`, the 50% effective concentration (EC50) in the data set on Plasmodium falciparum was 7.2 µM. In the data set with MRC5, this compound yielded a CC50 of over 50 µM.
For `Cc1cn([C@@H]2C[C@H](O)[C@@H](CNC(=O)Nc3cccc(COc4ccccc4)c3)O2)c(=O)[nH]c1=O`, in that order: 1.8 µM and over 50 µM.
As for `Cc1cn([C@@H]2C[C@H](O)[C@@H](CNC(=O)Nc3ccc(Cl)cc3)O2)c(=O)[nH]c1=O`, the Ki at Thymidylate kinase came to 114 µM. For the same compound, the midpoint of the response in the data set with Plasmodium falciparum, the EC50, lay at 2.6 µM. The CC50 in the data set on MRC5 was over 50 µM.
The compound `Cc1cn([C@@H]2C[C@H](O)[C@@H](CNC(=O)Nc3ccc(OCc4cccc(Cl)c4)cc3)O2)c(=O)[nH]c1=O` showed an EC50 with Plasmodium falciparum of 0.24 µM. The compound also yielded a CC50 with MRC5 of over 50 µM.
